# Target: Voltage-gated L-type calcium channel (Homo sapiens, UniProt Q13936+Q13698+Q01668+O60840)
# Experiment: Antagonistic activity at L-type calcium channel by displacement of [3H]diltiazem and enhanced [3H]nitrendipine binding
# Format: protein assay
row,IC50 [nM],Structure (SMILES)
1,5500,Cc1cc(C)cc(COCC(NCC(N)=O)C(c2ccccc2)c2ccccc2)c1 (stereo not given)
2,1670,NC(=O)CN[C@H](COCc1cc(C(F)(F)F)cc(C(F)(F)F)c1)C(c1ccccc1)c1ccccc1
3,980,Cc1cc(C)cc(COC[C@H](C(c2ccccc2)c2ccccc2)N(C)C)c1

row,Structure (SMILES),IC50 [nM]
1,COc1ccccc1CN[C@H]1C2CCN(CC2)[C@H]1C(c1ccccc1)c1ccccc1 [CP-96345],240

# Target: Substance-P receptor (Homo sapiens, UniProt P25103)
# Sequence (P25103 whole entry): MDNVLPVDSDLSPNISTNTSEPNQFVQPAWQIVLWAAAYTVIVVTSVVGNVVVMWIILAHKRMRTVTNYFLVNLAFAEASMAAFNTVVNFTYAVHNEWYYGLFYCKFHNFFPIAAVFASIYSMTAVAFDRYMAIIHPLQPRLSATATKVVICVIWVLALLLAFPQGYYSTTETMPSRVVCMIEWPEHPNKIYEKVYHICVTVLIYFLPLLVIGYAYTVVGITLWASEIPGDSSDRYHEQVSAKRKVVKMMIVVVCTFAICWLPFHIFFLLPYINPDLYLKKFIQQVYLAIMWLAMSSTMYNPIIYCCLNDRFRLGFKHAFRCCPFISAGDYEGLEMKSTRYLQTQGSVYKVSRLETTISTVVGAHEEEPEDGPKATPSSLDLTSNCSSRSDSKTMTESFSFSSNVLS
# Experiment: Binding affinity towards human Tachykinin receptor 1 expressed in CHO cells by the displacement of [125 I] substance P
# Format: cell-based
row,IC50 [nM],Structure (SMILES)
1,75,NC(COCc1cccc(Cl)c1)C(c1ccccc1)c1ccccc1 (stereo not given)
2,13.3,NC(COCc1cc(Br)cc(Br)c1)C(c1ccccc1)c1ccccc1 (stereo not given)
3,6.8,CNC(COCc1cc(C)cc(C)c1)C(c1ccccc1)c1ccccc1 (stereo not given)
4,77,NC(COCc1cccc(I)c1)C(c1ccccc1)c1ccccc1 (stereo not given)
5,150,Cc1ccc(C)c(COCC(N)C(c2ccccc2)c2ccccc2)c1 (stereo not given)
6,367,NC(COCc1ccccc1)C(c1ccccc1)c1ccccc1 (stereo not given)
7,9.7,Cc1cc(Br)cc(COCC(N)C(c2ccccc2)c2ccccc2)c1 (stereo not given)
8,17,Cc1cc(C)cc(COCC(O)C(c2ccccc2)c2ccccc2)c1 (stereo not given)
9,11.3,NC(COCc1cc(Cl)cc(Cl)c1)C(c1ccccc1)c1ccccc1 (stereo not given)

# Further lines, the compound ahead of its results:
row,Structure (SMILES),IC50 [nM]
1,NC(=O)CNC(COCc1cc(C(F)(F)F)cc(C(F)(F)F)c1)C(c1ccccc1)c1ccccc1 (stereo not given),0.85
2,Cc1cc(C)cc(COCC(NCC2CC2)C(c2ccccc2)c2ccccc2)c1 (stereo not given),93
3,Cc1cc(C)cc(COCC(NCc2ccccc2)C(c2ccccc2)c2ccccc2)c1 (stereo not given),82
4,Cc1cc(C)cc(COC[C@@H](C(c2ccccc2)c2ccccc2)N(C)C)c1,14
5,Cc1cc(C)cc(COCC(NCC(N)=O)C(c2ccccc2)c2ccccc2)c1 (stereo not given),2.2
6,Cc1cc(C)cc(COCC(NC(C)C)C(c2ccccc2)c2ccccc2)c1 (stereo not given),55
7,Cc1cc(C)cc(COCC(C(c2ccccc2)c2ccccc2)N(C)C)c1 (stereo not given),4.4
8,NC(=O)CN[C@H](COCc1cc(C(F)(F)F)cc(C(F)(F)F)c1)C(c1ccccc1)c1ccccc1,0.53
9,Cc1cc(C)cc(COC[C@H](C(c2ccccc2)c2ccccc2)N(C)C)c1,5.5
10,Cc1cc(C)cc(COCC(NC=O)C(c2ccccc2)c2ccccc2)c1 (stereo not given),11
11,CCNC(COCc1cc(C)cc(C)c1)C(c1ccccc1)c1ccccc1 (stereo not given),12.7
12,CC(=O)NC(COCc1cc(C)cc(C)c1)C(c1ccccc1)c1ccccc1 (stereo not given),21

# — ChEMBL document CHEMBL1150535, “Acyclic NK-1 antagonists: 2-benzhydryl-2-aminoethyl ethers” (Bioorg Med Chem Lett, 1994)
